# Laboratory results reported in ChEMBL document CHEMBL1133278, “1-[2-[(Heteroarylmethoxy)aryl]carbamoyl]indolines are selective and orally active 5-HT2C receptor inverse agonists” (Bioorg Med Chem Lett, 2000).
# How the values were obtained:
# [1] = biological target: 5-hydroxytryptamine receptor 2A (Homo sapiens, UniProt P28223); assay: In vitro binding affinity at human cloned 5-hydroxytryptamine 2A receptor of HEK293 cells by [3H]ketanserin displacement.; assay type: cell-based
# [2] = biological target: 5-hydroxytryptamine receptor 2B (Homo sapiens, UniProt P41595); assay: In vitro binding affinity at human cloned 5-hydroxytryptamine 2B receptor of HEK293 cells by [3H]5-HT displacement.; assay type: cell-based
# Sequence of 5-hydroxytryptamine receptor 2B (P41595 whole entry): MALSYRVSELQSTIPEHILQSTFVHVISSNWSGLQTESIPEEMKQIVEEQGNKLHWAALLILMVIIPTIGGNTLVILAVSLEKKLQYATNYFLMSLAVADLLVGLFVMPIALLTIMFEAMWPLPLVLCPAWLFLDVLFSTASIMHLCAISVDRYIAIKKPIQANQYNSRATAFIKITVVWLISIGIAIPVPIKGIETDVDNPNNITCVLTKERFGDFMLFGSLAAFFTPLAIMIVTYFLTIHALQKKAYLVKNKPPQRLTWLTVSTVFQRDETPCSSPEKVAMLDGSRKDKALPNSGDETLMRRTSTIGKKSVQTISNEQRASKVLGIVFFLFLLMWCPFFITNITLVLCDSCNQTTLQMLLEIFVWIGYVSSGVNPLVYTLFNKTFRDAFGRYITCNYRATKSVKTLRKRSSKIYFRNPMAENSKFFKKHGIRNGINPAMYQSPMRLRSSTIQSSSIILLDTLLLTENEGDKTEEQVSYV
# [3] = biological target: Serotonin receptor (2b and 2c) (Homo sapiens) (UniProt P41595+P28335); assay: Selectivity at serotonin 5-HT 2C receptor compared to serotonin 5-HT 2B receptor; assay type: protein assay
# [4] = biological target: Serotonin 2 receptors; 5-HT2a & 5-HT2c (Homo sapiens) (UniProt P28223+P28335); assay: Selectivity at 5-HT 2C receptor compared to serotonin 5-HT 2A receptor; assay type: protein assay
# Sequence of Serotonin 2 receptors; 5-HT2a & 5-HT2c (Homo sapiens) (P28223 whole entry, looked up, one chain of several): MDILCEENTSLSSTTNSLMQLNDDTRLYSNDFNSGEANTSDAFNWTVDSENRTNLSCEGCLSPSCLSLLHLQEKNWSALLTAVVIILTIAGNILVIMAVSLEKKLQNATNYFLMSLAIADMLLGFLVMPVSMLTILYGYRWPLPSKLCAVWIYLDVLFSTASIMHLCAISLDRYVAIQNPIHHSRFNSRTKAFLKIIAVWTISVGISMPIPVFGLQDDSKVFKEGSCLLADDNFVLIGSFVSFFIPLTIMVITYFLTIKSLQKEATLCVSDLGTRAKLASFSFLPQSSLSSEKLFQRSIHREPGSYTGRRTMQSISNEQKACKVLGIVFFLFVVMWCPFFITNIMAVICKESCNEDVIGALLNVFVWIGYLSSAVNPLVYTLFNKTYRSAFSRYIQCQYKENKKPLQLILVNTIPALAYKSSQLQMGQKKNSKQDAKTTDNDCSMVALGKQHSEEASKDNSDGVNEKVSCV
# [5] = biological target: T1, 5-hydroxytryptamine receptor 2C (Homo sapiens, UniProt P28335); assay: In vitro binding affinity at human cloned 5-hydroxytryptamine 2C receptor of HEK293 cells by [3H]mesulergine displacement.; assay type: cell-based
# T1 sequence (P28335 whole entry): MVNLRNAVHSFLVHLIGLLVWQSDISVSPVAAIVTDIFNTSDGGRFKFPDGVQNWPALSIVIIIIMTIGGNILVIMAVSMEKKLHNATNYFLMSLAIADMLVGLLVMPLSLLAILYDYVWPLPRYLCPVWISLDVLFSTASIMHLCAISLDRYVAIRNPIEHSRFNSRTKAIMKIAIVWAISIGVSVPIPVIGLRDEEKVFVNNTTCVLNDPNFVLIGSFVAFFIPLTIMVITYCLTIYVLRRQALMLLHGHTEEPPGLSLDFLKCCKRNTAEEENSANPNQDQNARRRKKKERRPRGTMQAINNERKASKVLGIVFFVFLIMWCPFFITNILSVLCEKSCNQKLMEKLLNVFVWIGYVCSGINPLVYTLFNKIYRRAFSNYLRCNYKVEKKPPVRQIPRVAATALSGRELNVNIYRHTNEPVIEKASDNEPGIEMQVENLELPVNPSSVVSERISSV
# Rattus norvegicus [6] = assay: Dose required to reverse mCPP induced hypolocomotion by 50% at 7 mg/kg, ip administration 30 min pretest in rat; assay type: functional; settings: po, 0.5 h, read-out: ID50 (the source's name)
# Rattus norvegicus [7] = assay: Percent reversal of mCPP induced hypolocomotion after peroral administration at 5 mg/kg in rat; assay type: functional; settings: route oral
# Sequence of 5-hydroxytryptamine receptor 2A (P28223 whole entry): as the sequence (P28223 whole entry, looked up, one chain of several) above
Structure (SMILES),Ki [1] [nM],Ki [2] [nM],Selectivity [3],Selectivity [4],Ki [5] [nM],ED50 (Rattus norvegicus [6]) [mg/kg],Reversal (Rattus norvegicus [7]) [%]
Cc1cc2c(cc1C(F)(F)F)N(C(=O)Nc1ccc(COc3ccccn3)nc1)CC2,100,200,40,20,5.01,–,–
Cc1cc2c(cc1C(F)(F)F)N(C(=O)Nc1ccc(OCc3ccccn3)nc1)CC2,631,31.6,60,1300,0.501,1,–
Cc1cccc(COc2ccc(NC(=O)N3CCc4cc(C)c(C(F)(F)F)cc43)cn2)n1,1000,25.1,4,160,6.31,–,–
Cc1cc2c(cc1Cl)N(C(=O)Nc1ccc(OCc3ccccn3)nc1)CC2,> 794,100,40,> 320,2.51,–,41
Cc1cc2c(cc1C(F)(F)F)N(C(=O)Nc1ccc(OCc3cnccn3)nc1)CC2,316,10,20,630,0.501,–,58
Cc1cc2c(cc1C(F)(F)F)N(C(=O)Nc1ccc(CCc3ccccn3)nc1)CC2,158,20,6,50,3.16,–,–
O=C(Nc1ccc(OCc2ccccn2)nc1)N1CCc2cc(C(F)(F)F)ccc21,5010,398,60,800,6.31,1.6,–
Cc1cc2c(cc1Cl)N(C(=O)Nc1ccc(OCc3nccs3)nc1)CC2,> 794,100,20,> 160,5.01,–,2
Cc1cc2c(cc1Cl)N(C(=O)Nc1ccc(OCc3cccnc3)nc1)CC2,> 794,25.1,1,> 30,25.1,–,–
Cc1cc2c(cc1Cl)N(C(=O)Nc1ccc(OCc3ccncc3)nc1)CC2,79.4,7.94,6,60,1.26,–,–
Cc1cc2c(cc1C(F)(F)F)N(C(=O)Nc1cnc(OCc3ccccn3)c(C)c1)CC2,39.8,7.94,20,100,0.398,0.3,–
Cc1cc2c(cc1C(F)(F)F)N(C(=O)Nc1ccc(OCc3ncccc3C)nc1)CC2,158,15.8,4,40,3.98,–,–
O=C(Nc1ccc(OCc2ccccn2)nc1)N1CCc2ccc(C(F)(F)F)cc21,251,251,30,30,7.94,–,–
Cc1cc2c(cc1C(F)(F)F)N(C(=O)Nc1ccc(OCc3ccccn3)nn1)CC2,251,79.4,15,50,5.01,–,–
O=C(Nc1ccc(OCc2ccccn2)nc1)N1CCc2cc(Br)ccc21,2510,501,30,160,15.8,2.4,–
Cc1cc2c(cc1C(F)(F)F)N(C(=O)Nc1ccc(OCCc3ccccn3)nc1)CC2,2000,20,2,200,10,–,–
Cc1cc2c(cc1C(F)(F)F)N(C(=O)Nc1ccc(OCc3cncn3C)nc1)CC2,100,6.31,2,25,3.98,–,–
O=C(Nc1ccc(OCc2ccccn2)nc1)N1CCc2c(Cl)cccc21,5010,1000,13,60,79.4,–,–
O=C(Nc1ccc(OCc2ccccn2)nc1)N1CCc2cc(Cl)ccc21,> 5010,1000,30,> 160,31.6,–,–
Cc1cc2c(cc1C(F)(F)F)N(C(=O)Nc1ccc(OCc3ccccn3)cc1)CC2,398,25.1,10,160,2.51,–,84
Cc1cc2c(cc1Cl)N(C(=O)Nc1ccc(OCc3nccn3C)nc1)CC2,251,12.6,2.5,50,5.01,–,–
